Assay results as given in patent US10617732B2, “Composition including extract of Dolichos lablab Linne as active ingredient for preventing or ameliorating non-alcoholic fatty liver disease” (KOREA INSTITUTE OF ORIENTAL MEDICINE, priority 2014, dated 2020).

Tested on: hepatocarcinoma cell line (HepG2)
Test: Oil Red O staining assay of triglyceride in free fatty acid-treated cells
Format: cell-based
Details: HepG2, 1 mM free fatty acid; 10, 30, 50 and 100 μM
Experimental: After the medium was removed from the Hepatocarcinoma cell line (HepG2), the cells were washed with 0.5 ml of PBS buffer solution, and the PBS buffer solution was completely removed therefrom. Then, 0.5 ml of 10% formalin was added thereto at room temperature and the resultant cells were incubated for 10 minutes.
After removing the formalin and adding 0.5 ml of fresh formalin, the cells were incubated for at least 1 hour (the cells can be stored in a formalin solution for several days before staining, and needs to be wrapped with an aluminum foil and parafilm to prevent the cells from being dried). […]
0.5 ml of an Oil Red O solution was added to the dried cells, which was then incubated at room temperature for 10 minutes. […] The debris of the staining solution was removed as much as possible, and images of the cells were obtained using a fluorescence microscope.
To the cells that had been completely dried, 0.5 ml of Oil Red O staining solution prepared by using 100% of isopropanol in a dry state was added. […] At this time, the resultant solution was mixed with a pipette up and down so that the cells were stained well with Oil Red O. Then, the mixture was transferred to a 96-well plate and the OD was measured at 500 nm. The OD value of 100% isopropanol was measured and used as a reference value (0 point).

**Q.** `CC1(C)[C@@H](O)CC[C@]2(C)[C@H]3C(=O)C=C4[C@@H]5C[C@@](C)(C(=O)O)CC[C@]5(C)CC[C@@]4(C)[C@]3(C)CC[C@@H]12` [18 beta-glycyrrhetinic acid] was tested. Which “content of triglyceride in Oil-red-O staining images” value did it give?
**A.** the higher concentration of 18 beta-glycyrrhetinic acid, the smaller content of triglyceride
